Measured values from patent US20250241905A1, “3-BETA-HSD1 INHIBITORS AND COMPOSITIONS AND USES THEREOF” (The Cleveland Clinic Foundation, priority 2022, published 2025).

Target: human 3β-HSD1
Assay: 3β-HSD1 inhibition, colorimetric NADH detection assay
Type: biochemical
Conditions: purified recombinant human 3β-HSD1, 50 μM DHEA, 2 mM NAD+, 1 hour, room temperature, duplicate 10-point CRC; read-out: IC50 (nM), in vitro NADH inhibition
Source text: Enzymatic turnover was quantified through NADH generation by purified, recombinant human 3β-HSD1 (expressed in Sf9 insect cells) in the presence of steroidal substrate trans-Dehydroandrosterone (DHEA) that was placed slightly above the experimentally determined Km and saturating amounts of co-factor Nicotinamide adenine dinucleotide (NAD^+). The sequence of recombinant human 3β-HSD1 used is […] […] […] […] […] […] […] (SEQ ID NO: 3). DHEA and NAD+ were enzymatically converted to androstenedione and NADH, respectively. Final NADH concentrations were spectroscopically quantified using a commercially available Amplite™ Colorimetric NADH Assay Kit which utilizes an NADH probe with an absorbance wavelength of 460 nm. Enzymatic assays with a final volume of 25 μL were ran in a 384-well, Greiner Bio-One UV-STAR® assay plate in 50 mM TRIS pH 8.0 assay buffer. […] Compound stocks at 10 mM in DMSO were serial diluted 5-fold in DMSO to generate an ECHO® compatible source plate. 125 nL of DMSO, Trilostane, or serial diluted compounds were then acoustically transferred into an empty UV-STAR® assay plate to give a final assay concentration of 0.5% v/v DMSO. The stamp volume and dilution scheme can be adjusted to accommodate compound potency. The assay can tolerate up to a 5% v/v DMSO final assay concentration. 15 μL of 1 μg purified 3β-HSD1 and 50 μM DHEA (final assay volume concentration) was dispensed per well into the stamped plate, centrifuged for 1 minute at 1000 RPM, covered, and allowed to incubate for 15 minutes at room temp. Enzymatic reactions were initiated upon the addition of 10 μL of NAD^+ diluted in assay buffer to give a final assay volume concentration of 2 mM. The assay plate was centrifuged for 1 minute at 1000 RPM, covered, and incubated at room temperature for 1 hour. 25 μL Amplite™ Colorimetric NADH Assay Kit detection solution (prepared as recommended) was added to all reaction wells, the plate centrifuged for 1 minute at 1000 RPM, covered, and incubated for 15 minutes. Final absorbance values (λ=460 nm) are spectroscopically determined on BioTek® Cytation5 or Synergy4 plate readers. […] From the background subtracted values, the non-inhibited enzyme signal (DMSO treated) was averaged from 32 control reactions. The percent inhibition value was calculated by: % inhibition=(1−((background subtracted inhibited reaction)/(background subtracted non-inhibited average)))*100. The resulting percent inhibition was then plotted in duplicate against corresponding concentration values. The resulting CRCs were fit with a four parameter, variable slope log (inhibitor) vs response equation where Y=bottomvalue+ (topvalue−bottomvalue)/(1+10^((log IC50−X)*Hillslope)) to determine the IC50 values for tested compounds.

human 3β-HSD1, sequence (P14060 2-373 limits assumed): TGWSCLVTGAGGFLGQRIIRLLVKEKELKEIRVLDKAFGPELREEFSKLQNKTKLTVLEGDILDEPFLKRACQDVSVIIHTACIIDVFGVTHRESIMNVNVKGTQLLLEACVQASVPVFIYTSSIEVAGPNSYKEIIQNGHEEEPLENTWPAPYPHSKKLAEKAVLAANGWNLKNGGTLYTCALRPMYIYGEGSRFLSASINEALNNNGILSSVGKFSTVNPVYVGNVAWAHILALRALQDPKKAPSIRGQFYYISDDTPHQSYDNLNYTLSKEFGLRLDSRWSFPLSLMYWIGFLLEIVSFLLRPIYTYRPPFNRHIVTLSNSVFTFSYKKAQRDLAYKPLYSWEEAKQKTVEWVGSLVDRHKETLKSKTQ

Compound | IC50
O=C1CCCc2nc(-c3cc(F)c(O)c(F)c3)cnc21 [Compound 70] | 7640 nM
Oc1c(F)cc(-c2ccc3c(n2)CCCC3O)cc1F (stereo not drawn) [Compound 13] | 748 nM
Cc1c(-c2ccc3c(n2)CCCC3=O)cc(F)c(O)c1F [Compound 27] | 367 nM
COCCN1CC(C)(C)C(=O)c2ccc(-c3cc(F)c(O)c(F)c3)nc21 [Compound 83] | 556 nM
CN1CC(C)(C)C(=O)c2ccc(-c3cc(F)c(O)c(F)c3)nc21 [Compound 68] | 308 nM
O=C1CCCc2nc(-c3cnc(O)c(F)c3)ccc21 [Compound 21] | 6100 nM
O=C1CCc2nc(-c3cc(F)c(O)c(F)c3)ccc21 [Compound 22] | 297 nM
CC1(C)CCc2nc(-c3cc(F)c(O)cc3F)ncc2C1=O [Compound 85] | 1540 nM
CC1(C)CCc2nc(-c3ccc(O)c(F)c3)ncc2C1=O [Compound 84] | 288 nM
N#Cc1cc(-c2ccc3c(n2)CCCC3=O)ccc1O [Compound 3, 2-hydroxy-5-(5-oxo-5,6,7,8-tetrahydroquinolin-2-yl)benzonitrile] | 651 nM
Cc1cc(-c2ccc3c(n2)CCC(C)(C)C3=O)cc(Cl)c1O [Compound 78] | 2170 nM
CCc1cc(-c2cc(F)c(O)c(F)c2)nc2c1C(=O)CCC2 [Compound 44] | 1280 nM
O=C1CCCc2nc(-c3c(F)c(F)c(O)c(F)c3F)ccc21 [Compound 28] | 3000 nM
CC1(C)CCc2nc(-c3ccc(O)c(F)c3)ccc2C1(C)O (stereo not drawn) [Compound 18] | 504 nM
CC1(C)CCc2nc(-c3ccc(O)c(C(F)(F)F)c3)ccc2C1=O [Compound 50] | 1500 nM
O=C1c2ccc(-c3cc(F)c(O)c(F)c3)nc2CCC12COC2 [Compound 63] | 370 nM
O=C1c2ccc(-c3cc(F)c(O)c(F)c3)nc2CCC12CCC2 [Compound 30] | 303 nM
CC1(C)CC(=O)c2ccc(-c3cc(F)c(O)c(F)c3)nc2C1 [Compound 42] | 287 nM
CCC1(O)CCCc2nc(-c3cc(F)c(O)c(F)c3)ccc21 (stereo not drawn) [Compound 43] | 365 nM
Cc1cc(-c2cc(F)c(O)c(F)c2)nc2c1C(=O)CCC2 [Compound 31] | 991 nM

Compound | IC50
CC(C)c1cc(-c2cc(F)c(O)c(F)c2)nc2c1C(=O)CCC2 [Compound 45] | 8610 nM
Oc1c(F)cc(-c2ccc3c(n2)CCCC3OCC2COC2)cc1F (stereo not drawn) [Compound 74] | 441 nM
O=C1c2ccc(-c3cc(F)c(O)c(F)c3)nc2CCC12COCOC2 [Compound 62] | 541 nM
Cc1cc(-c2ccc3c(n2)CCC(C)(C)C3=O)c(F)c(F)c1O [Compound 81] | 326 nM
NC1CCCc2nc(-c3cc(F)c(O)c(F)c3)ccc21 (stereo not drawn) [Compound 15] | 3440 nM
CC1(C)CNc2nc(-c3cc(F)c(O)c(F)c3)ccc2C1=O [Compound 69] | 470 nM
CC1(C)CCc2nc(-c3cc(F)c(O)c(F)c3)ccc2C1(O)c1ccccc1 (stereo not drawn) [Compound 19] | 314 nM
CC1(C2(O)COC2)CCc2nc(-c3cc(F)c(O)c(F)c3)ccc2C1=O (stereo not drawn) [Compound 86] | 1420 nM
CC1(O)CCCc2nc(-c3cc(F)c(O)c(F)c3)ccc21 (stereo not drawn) [Compound 14] | 339 nM
COCC1(C)CCc2nc(-c3cc(F)c(O)c(F)c3)ccc2C1=O (stereo not drawn) [Compound 75] | 338 nM
O=C1CCOc2nc(-c3cc(F)c(O)c(F)c3)ccc21 [Compound 64] | 433 nM
O=C(O)CC1CCc2nc(-c3cc(F)c(O)c(F)c3)ccc2C1=O (stereo not drawn) [Compound 37] | 2840 nM
CC1(C)CCCc2nc(-c3cc(F)c(O)c(F)c3)ccc2C1=O [Compound 33] | 292 nM
O=C1c2ccc(-c3cc(F)c(O)c(F)c3)nc2CCC1Cc1ccccn1 (stereo not drawn) [Compound 38] | 272 nM
CC1(C)CCc2nc(-c3cnc(O)c(F)c3)ccc2C1=O [Compound 65] | > 20000 nM
CN(C)CC1(C)CCc2nc(-c3cc(F)c(O)c(F)c3)ccc2C1=O (stereo not drawn) [Compound 60] | 1170 nM
CCN1CC(C)(C)C(=O)c2ccc(-c3cc(F)c(O)c(F)c3)nc21 [Compound 82] | 326 nM
CC1(C)CCc2nc(-c3cc(F)c(O)c(C#N)c3)ccc2C1=O [Compound 67] | 1880 nM
CC1(O)CCc2nc(-c3cc(F)c(O)c(F)c3)ccc2C1=O (stereo not drawn) [Compound 34] | 446 nM

Stronger by IC50, values ahead:

IC50 | Compound
149 nM | O=C1c2ccc(-c3cc(F)c(O)c(F)c3)nc2CCC1F (stereo not drawn) [Compound 51]
59 nM | CC1(C(F)(F)F)CCc2nc(-c3cc(F)c(O)c(F)c3)ccc2C1=O (stereo not drawn) [Compound 36]
218 nM | O=C1CCNc2nc(-c3cc(F)c(O)c(F)c3)ccc21 [Compound 26]
110 nM | CC[C@]1(C)CCc2nc(-c3cc(F)c(O)c(F)c3)ccc2C1=O [Compound 56]
78 nM | CC1(C(F)(F)C(F)(F)F)CCc2nc(-c3cc(F)c(O)c(F)c3)ccc2C1=O (stereo not drawn) [Compound 88]
222 nM | CC1(CO)CCc2nc(-c3cc(F)c(O)c(F)c3)ccc2C1=O (stereo not drawn) [Compound 52]
177 nM | O=C1c2ccc(-c3cc(F)c(O)c(F)c3)nc2CC[C@@H]1Cc1ccccc1 [Compound 47]
51 nM | CC1(C)CCc2nc(-c3ccc(O)c(F)c3)ccc2C1=O [Compound 6, 2-(3-fluoro-4-hydroxyphenyl)-6,6-dimethyl-7,8-dihydroquinolin-5(6H)-one]
92 nM | CC1(C#N)CCc2nc(-c3cc(F)c(O)c(F)c3)ccc2C1=O (stereo not drawn) [Compound 35]
45 nM | COC1(C(C)C)CCCc2nc(-c3cc(F)c(O)c(F)c3)ccc21 (stereo not drawn) [Compound 87]
49 nM | O=C1CCCc2nc(-c3cc(F)c(O)c(Cl)c3)ccc21 [Compound 23]
122 nM | CC1(C)CCc2nc(-c3ccc(O)c(F)c3F)ccc2C1=O [Compound 73]
204 nM | COC1CCCc2nc(-c3cc(F)c(O)c(F)c3)ccc21 (stereo not drawn) [Compound 53]
238 nM | Oc1c(F)cc(-c2ccc3c(n2)CCCC3(O)c2ccccn2)cc1F (stereo not drawn) [Compound 94]
55 nM | C[C@@]1(Cc2ccccc2)CCc2nc(-c3cc(F)c(O)c(F)c3)ccc2C1=O [Compound 58]
188 nM | CC1(CC(F)(F)F)CCc2nc(-c3cc(F)c(O)c(F)c3)ccc2C1=O (stereo not drawn) [Compound 89]
38 nM | COC1(C)CCCc2nc(-c3cc(F)c(O)c(F)c3)ccc21 (stereo not drawn) [Compound 79]
152 nM | CC1(C)CCc2nc(-c3cc(F)c(O)c(F)c3F)ccc2C1=O [Compound 80]

IC50 | Compound
127 nM | O=C1c2ccc(-c3cc(F)c(O)cc3F)nc2CCC12CC2 [Compound 61]
249 nM | O=C1c2ccc(-c3cc(F)c(O)c(F)c3)nc2CCC1Cc1cccnc1 (stereo not drawn) [Compound 39]
100 nM | COC1(c2ncco2)CCCc2nc(-c3cc(F)c(O)c(F)c3)ccc21 (stereo not drawn) [Compound 95]
26 nM | CC1(C)CCc2nc(-c3ccc(O)c(Cl)c3)ccc2C1=O [Compound 49]
68 nM | Oc1c(F)cc(-c2ccc3c(n2)CCCC3(O)c2cccnc2)cc1F (stereo not drawn) [Compound 92]
227 nM | CC1(C)CCc2nc(-c3cc(F)c(O)c(F)c3)ccc2C1(O)Cc1ccccc1 (stereo not drawn) [Compound 17]
131 nM | COC1(c2ccccn2)CCCc2nc(-c3cc(F)c(O)c(F)c3)ccc21 (stereo not drawn) [Compound 93]
25 nM | COC1(c2cccnc2)CCCc2nc(-c3cc(F)c(O)c(F)c3)ccc21 (stereo not drawn) [Compound 91]
67 nM | Cc1cc(-c2ccc3c(n2)CCC(C)(C)C3=O)cc(F)c1O [Compound 71]
83 nM | O=C1CCCc2nc(-c3cc(F)c(O)cc3F)ccc21 [Compound 24]
212 nM | O=C1c2ccc(-c3cc(F)c(O)c(F)c3)nc2CCC1Cc1ccncc1 (stereo not drawn) [Compound 40]
107 nM | CC1(C)CCc2nc(-c3cc(F)c(O)c(Cl)c3)ccc2C1=O [Compound 54]
130 nM | O=C1c2ccc(-c3cc(F)c(O)c(F)c3)nc2CCC1CC1CC1 (stereo not drawn) [Compound 29]
19 nM | O=C1c2ccc(-c3cc(F)c(O)c(F)c3)nc2CC[C@H]1Cc1ccccc1 [Compound 48]
78 nM | C[C@]1(Cc2ccccc2)CCc2nc(-c3cc(F)c(O)c(F)c3)ccc2C1=O [Compound 57]
221 nM | CC1(C)Cc2nc(-c3cc(F)c(O)c(F)c3)ccc2C1=O [Compound 72]
42 nM | CC1(F)CCc2nc(-c3cc(F)c(O)c(F)c3)ccc2C1=O (stereo not drawn) [Compound 46]
52 nM | CCOC1(c2ccccc2)CCCc2nc(-c3cc(F)c(O)c(F)c3)ccc21 (stereo not drawn) [Compound 90]
